Test results as given in patent publication US9624244B2, “Benzo [B] isoxazoloazepine bromodomain inhibitors and uses thereof” (Constellation Pharmaceuticals, Inc., priority 2012, dated 2017).

What was measured:
BRD4(BD1) = target: T1, BRD4(BD1) (Homo sapiens, UniProt O60885); assay: BRD4 AlphaLisa binding assay; conditions: BRD4(BD1) 30 nM, biotinylated H4-tetraacetyl peptide 200 nM, read-out: AS IC50
T1 construct: His; made in house
Description: IC50 Measurements for Inhibitors Using BRD4 AlphaLisa Binding Assay
Specifically, in a 384 well ProxiPlate BRD4(BD1) (30 nM final) was combined with peptide (200 nM final) in 40 mM HEPES (pH 7.0), 40 mM NaCl, 1 mM DTT, 0.01% (w/v) BSA, and 0.008% (w/v) Brij-35 either in the presence of DMSO (final 1.2% DMSO) or compound dilution series in DMSO. After 20 minute incubation at room temperature Alpha streptavidin donor beads and AlphaLisa anti-Flag acceptor beads were added to a final concentration of 10 ug/mL each. After three hours equilibration plates were read on an Envision instrument and IC50s calculated using a four parameter non-linear curve fit.

[1] = system: IL-6 secretion, THP-1 cells; assay: Cell-based IL-6 quantification assay (ELISA, Mesoscale) in LPS-stimulated THP-1 cells; conditions: Homo sapiens, LPS 4 μg/mL, 16 h, ELISA value/CellTiter-Glo ratio
Description: Cell-Based IL-6 Quantification Assay (ELISA, Mesoscale Assay):
100,000 THP-1 cells were seeded in RPMI1640-10% FBS in 96-well plates. LPS (E. Coli Invitrogen) in RPMI-10% FBS at a final concentration of 4 μg/mL was added to the wells and the cells are then incubated in the presence of various concentrations of compounds for 16 h. Plates are spun ([…], 5 min), an aliquot of 25 uL supernatant is transferred in to an ELISA plate (Mesoscale technology, MSD) and the detection of IL-6 is performed using manufacturer's instructions. The amount of cells in each well is assessed using CellTiter-Glo® (Promega). The ratio of ELISA value/CellTiter-Glo value is used to calculate the percent of inhibition of IL-6 secretion.

[2] = system: MYC mRNA, MV4:11 (AML) or Raji (Burkitt's lymphoma) cells; assay: cMyc RNA quantification assay (QuantiGene); format: cell-based; conditions: MV4:11 or Raji cells, 4 h, MYC mRNA normalized to DMSO
Description: cMyc RNA Quantification Assay (QuantiGene® Assay):
MV4:11 (AML) or Raji (Burkitt's lymphoma) cells were seeded in a 96-well plate and incubated in the presence of various concentrations of compounds for 4 h. Relative mRNA levels were quantitated by using QuantiGene 2.0 assay (Affymetrix) according to the manufacturer's recommendation. Signals were detected by using an Envision plate reader (Perkin-Elmer). Biological duplicates were averaged and normalized to vehicle (DMSO) control to calculate percent MYC mRNA levels.

Compound | IC50 (BRD4(BD1)) | IC50 [1] | EC50 [2]
Cc1noc2c1-c1ccccc1NCC2 [Compound 100, 1-methyl-5,6-dihydro-4H-benzo[b]isoxazolo[4,5-d]azepine] | 29800 nM | > 15000 nM | –
Cc1noc2c1-c1ccccc1N(c1ccc(Cl)cc1)CC21CC1 [Compound 105] | 3380 nM | – | –
Cc1noc(C)c1-c1ccc2c(c1)N(c1ccc(C#N)cc1)CCc1onc(C)c1-2 [Compound 111] | 300 nM | > 1000 nM | 3330 nM
Cc1noc(C)c1-c1ccc2c(c1)-c1c(C)noc1CCN2c1ccc(C#N)cc1 [Compound 113] | 8900 nM | 7400 nM | > 4000 nM
Cc1noc2c1-c1ccc(-c3ccc(C(=O)O)cc3)cc1N(c1ccc(C#N)cc1)CC2 [Compound 115] | 30 nM | 530 nM | 2120 nM
Cc1noc2c1-c1ccc(-c3ccc(=O)n(C)c3)cc1N(c1ccc(C#N)cc1)CC2 [Compound 117] | 40 nM | 150 nM | 610 nM
Cc1noc2c1-c1ccc(-c3cnn(C)c3)c(C)c1N(c1ccc(C#N)cc1)CC2C (stereo not drawn) [Compound 118] | 160 nM | 520 nM | 830 nM
Cc1noc2c1-c1ccc(-c3cnn(C)c3)cc1N(c1ccc(C(N)=O)cc1)CC2 [Compound 119] | 150 nM | 610 nM | 460 nM
Cc1noc2c1-c1ccc(-c3cnn(C)c3)cc1N(c1ccc(S(C)(=O)=O)cc1)CC2 [Compound 120] | 240 nM | > 1000 nM | 1460 nM
CCC1CN(c2ccc(C#N)cc2)c2cc(-c3cnn(C)c3)ccc2-c2c(C)noc21 (stereo not drawn) [Compound 121] | 80 nM | 150 nM | 460 nM
CCC1CN(c2ccc(C#N)cc2)c2cc(-c3ccc(=O)n(C)c3)ccc2-c2c(C)noc21 (stereo not drawn) [Compound 122] | 40 nM | 120 nM | 240 nM
Cc1noc2c1-c1ccc(-c3ccc(N)nc3)cc1N(c1ccc(C#N)cc1)CC2C (stereo not drawn) [Compound 123] | 40 nM | 80 nM | 200 nM
Cc1noc2c1-c1ccc(-c3cnn(C)c3)cc1N(c1ccc(C#N)cc1)CC2C (stereo not drawn) [Compound 124] | 40 nM | 120 nM | 260 nM
Cc1noc2c1-c1ccc(-c3ccc(=O)n(C)c3)cc1N(c1ccc(C#N)cc1)CC2C (stereo not drawn) [Compound 125] | 40 nM | 90 nM | 170 nM
Cc1noc2c1-c1ccccc1N(C)CC2 [Compound 127, 1,6-dimethyl-5,6-dihydro-4H-benzo[b]isoxazolo[4,5-d]azepine] | 9870 nM | > 15000 nM | –
Cc1noc2c1-c1ccccc1N(C(C)C)CC2 [Compound 128, 6-isopropyl-1-methyl-5,6-dihydro-4H-benzo[b]isoxazolo[4,5-d]azepine] | 8100 nM | > 15000 nM | –
CCCN1CCc2onc(C)c2-c2ccccc21 [Compound 129, 1-methyl-6-propyl-5,6-dihydro-4H-benzo[b]isoxazolo[4,5-d]azepine] | 7900 nM | > 15000 nM | –
Cc1noc2c1-c1ccccc1N(Cc1ccccc1)CC2 [Compound 130, 6-benzyl-1-methyl-5,6-dihydro-4H-benzo[b]isoxazolo[4,5-d]azepine] | 12900 nM | 5900 nM | > 4000 nM
Cc1cccc2c1N(Cc1ccccc1)CCc1onc(C)c1-2 [Compound 131, 6-benzyl-1,7-dimethyl-5,6-dihydro-4H-benzo[b]isoxazolo[4,5-d]azepine] | 20700 nM | 8500 nM | > 4000 nM
Cc1noc2c1-c1ccccc1N(C(=O)c1ccccc1)CC2 [Compound 132, (1-methyl-4H-benzo[b]isoxazolo[4,5-d]azepin-6(5H)-yl)(phenyl)methanone] | 8140 nM | 3110 nM | –
Cc1noc2c1-c1ccc(Cl)cc1N(S(=O)(=O)c1ccccc1)CC2 [Compound 133, 8-chloro-1-methyl-6-(phenylsulfonyl)-5,6-dihydro-4H-benzo[b]isoxazolo[4,5-d]azepine] | > 4000 nM | > 1000 nM | > 4000 nM
Cc1noc2c1-c1ccc(-c3cnn(CC(N)=O)c3)cc1N(c1ccc(C#N)cc1)CC2C (stereo not drawn) [Compound 134, 2-(4-(6-(4-cyanophenyl)-1,4-dimethyl-5,6-dihydro-4H-benzo[b]isoxazolo[4,5-d]azepin-8-yl)-1H-pyrazol-1-yl)acetamide] | 30 nM | 70 nM | 120 nM
Cc1noc2c1-c1ccc(-c3cnn(C)c3)cc1N(c1ccc(C#N)cc1)C(=O)C2 [Compound 135, 4-(1-methyl-8-(1-methyl-1H-pyrazol-4-yl)-5-oxo-4H-benzo[b]isoxazolo[4,5-d]azepin-6(5H)-yl)benzonitrile] | 490 nM | 650 nM | 1320 nM
Cc1onc2c1-c1ccccc1N(c1ccc(Cl)cc1)CC2 [Compound 136, 6-(4-chlorophenyl)-1-methyl-5,6-dihydro-4H-benzo[b]isoxazolo[4,3-d]azepine] | 4770 nM | 7700 nM | > 4000 nM
Cc1noc2c1-c1ccc(-c3cnn(C)c3)cc1N(c1ccc(C#N)cc1)CC2CC(N)=O (stereo not drawn) [Compound 137, 2-(6-(4-cyanophenyl)-1-methyl-8-(1-methyl-1H-pyrazol-4-yl)-5,6-dihydro-4H-benzo[b]isoxazolo[4,5-d]azepin-4-yl)acetamide] | 420 nM | > 1000 nM | 1840 nM
Cc1noc2c1-c1ccc(-c3cnn(C)c3)cc1N(c1ccc(C#N)cc1)CC2CC#N (stereo not drawn) [Compound 140, 4-(4-(cyanomethyl)-1-methyl-8-(1-methyl-1H-pyrazol-4-yl)-4H-benzo[b]isoxazolo[4,5-d]azepin-6(5H)-yl)benzonitrile] | 500 nM | > 1000 nM | –
Cc1noc2c1-c1ccccc1NC(=O)C2N (stereo not drawn) [Compound 142, 4-amino-1-methyl-4H-benzo[b]isoxazolo[4,5-d]azepin-5(6H)-one] | > 80000 nM | > 1000 nM | –
Cc1onc2c1-c1ccccc1NCC2 [Compound 143, 1-methyl-5,6-dihydro-4H-benzo[b]isoxazolo[4,3-d]azepine] | 39600 nM | – | –
Cc1noc2c1-c1ccccc1NC(C)C2 (stereo not drawn) [Compound 144, 1,5-dimethyl-5,6-dihydro-4H-benzo[b]isoxazolo[4,5-d]azepine] | 24000 nM | > 15000 nM | –

Second part, led by results:

IC50 (BRD4(BD1)) | IC50 [1] | Compound | EC50 [2]
2680 nM | 11900 nM | Cc1noc2c1-c1ccccc1N(c1ccc(Cl)cc1)CC2 [Compound 101] | –
430 nM | 4570 nM | Cc1noc2c1-c1ccccc1N(c1ccc(C#N)cc1)CC2 [Compound 102] | –
750 nM | – | Cc1noc2c1-c1ccccc1N(c1ccc(C#N)cc1)CC21CC1 [Compound 104] | –
230 nM | > 1000 nM | Cc1ccc2c(c1)-c1c(C)noc1CCN2c1ccc(C#N)cc1 [Compound 106] | 1980 nM
> 4000 nM | > 15000 nM | Cc1cc(C#N)ccc1N1CCc2onc(C)c2-c2ccccc21 [Compound 107] | –
570 nM | – | Cc1noc2c1-c1cc(C#N)ccc1N(c1ccc(C#N)cc1)CC2 [Compound 108] | –
350 nM | > 1000 nM | Cc1noc2c1-c1ccc(-c3cncnc3)cc1N(c1ccc(C#N)cc1)CC2 [Compound 109] | 2040 nM
80 nM | > 1000 nM | Cc1noc2c1-c1ccc(-c3cnn(C)c3)cc1N(c1ccc(C#N)cc1)CC2 [Compound 110] | 780 nM
50000 nM | > 15000 nM | Cc1noc2c1-c1cc(-c3cncnc3)ccc1N(c1ccc(C#N)cc1)CC2 [Compound 112] | –
3800 nM | > 15000 nM | Cc1noc2c1-c1cc(-c3cnn(C)c3)ccc1N(c1ccc(C#N)cc1)CC2 [Compound 114] | > 4000 nM
60 nM | 380 nM | Cc1noc2c1-c1ccc(-c3ccc(N)nc3)cc1N(c1ccc(C#N)cc1)CC2 [Compound 116] | 550 nM
1410 nM | 5280 nM | Cc1noc2c1-c1cc(C(N)=O)ccc1N(c1ccc(C#N)cc1)CC2 [Compound 126, 6-(4-cyanophenyl)-1-methyl-5,6-dihydro-4H-benzo[b]isoxazolo[4,5-d]azepine-9-carboxamide] | 1790 nM
560 nM | 4390 nM | Cc1noc2c1-c1ccccc1N(c1ccc(C#N)cc1)C(C)C2 (stereo not drawn) [Compound 141, 4-(1,5-dimethyl-4H-benzo[b]isoxazolo[4,5-d]azepin-6(5H)-yl)benzonitrile] | –
